The target of this assay is T1, 18-kDa translocator protein (TSPO) (Rattus norvegicus, UniProt P16257).
T1 construct: native TSPO in rat C6 glioma cell membranes
The experiment in a line: [3H]-PK […] radioligand displacement on C6 glioma membrane extracts. Format: binding. The note with it: read-out: Ki (nM) for TSPO. A general note: Loss of bound radioactivity is the signal in a displacement assay; it reports binding, not function.

Regarding `CCCN(CCC)C(=O)Cc1c(-c2ccc(Cl)cc2)nc2c(NC(=O)C[N+]34Cc5cccc[n+]5[Re-5]3([C]#[O+])([C]#[O+])([C]#[O+])[n+]3ccccc3C4)cccn12` (centres unmarked) [compound 2, Re-CB256], the inhibitory constant (Ki) is 159 ± 8.7 nM. For `CCCN(CCC)C(=O)Cc1c(-c2ccc(Cl)cc2)nc2c(NC(=O)CN(Cc3ccccn3)Cc3ccccn3)cccn12` [compound 3], the Ki was 148 ± 11.3 nM.

The term Ki denotes the equilibrium dissociation constant of an inhibitor or competing ligand from its target.

For the origin of these results see paper PMC4964461, “Synthesis and Evaluation of Tricarbonyl ^99mTc-Labeled 2-(4-Chloro)phenyl-imidazo[1,2-a]pyridine Analogs as Novel SPECT Imaging Radiotracer for TSPO-Rich Cancer” (International Journal of Molecular Sciences, 2016).
